Assays:
[1] = test system: accumulation of sorbitol in the sciatic nerves; test: Inhibition of accumulation of sorbitol in sciatic nerves of diabetic rats; assay type: in vivo, Sprague Dawley rats; details: oral 25 mg/kg at 0, 7 and 24 h, sacrificed 27 h
Experimental: (§1) 2.1 Inhibition of accumulation of sorbitol in crystalline lenses and nerves of diabetic rats:
(§2) The effects of the products according to the invention on the proportion of plasma glucose and the accumulation of sorbitol in the crystalline lenses and sciatic nerves of rats made diabetic by streptozotocin were examined by the method of M. J. Peterson, et al (Metabolism, 28, 456-461 (1979)).
(§3) Fasted Sprague Dawley rats were made diabetic by intraperitoneal injection of streptozotocin (75 mg/kg). The product under test was orally administered at a dose of 25 mg/kg after 0, 7 and 24 hours. The rats were sacrificed 27 hours after induction of diabetes. The crystalline lenses and sciatic nerves were taken and preserved at -20° C. until analysed. The crystalline lenses and sciatic nerves were homogenized in water and the proteins were precipitated from ethanol. The precipitate was eliminated by centrifuging and the supernatant liquid was lyophylised. The sorbitol in the sample was determined by the method of B. Bjorkqvist (J. of Chromatograph, 218, 65-71 (1981)), adapted by A. Lenaers et al. (Arch. Intern. Physiol. Bioch., 91, B, 62-63 (1983)).
(§4) The sample was dissolved in pyridine containing galactitol as an internal standard. Derivatives were formed therefrom by phenylisocyanate during incubation for 1 hour at 60° C. The reaction was then stopped by adding methanol and the derivatives were separated and determined by HPLC.
(§5) The results are expressed as percentage inhibition of the accumulation of sorbitol, compared with the controls.

[2] = test system: accumulation of sorbitol in the crystalline lenses; test: Inhibition of accumulation of sorbitol in crystalline lenses of diabetic rats; assay type: in vivo, Sprague Dawley rats; details: for Inhibition of accumulation of sorbitol in vivo, crystalline lenses: oral 25 mg/kg at 0, 7 and 24 h, sacrificed 27 h; for inhibition of accumulation of sorbitol in crystalline lenses and sciatic nerves (in words): oral 25 mg/kg
Experimental: as §1, §2, §3, §4, §5

[3] = Acute oral toxicity (LD50); assay type: in vivo; details: mouse, in vivo, mice, read-out: Lethal dose LD50
Experimental: The LD 50 was calculated by the method of Litchfield and Wilcoxon (J. Pharmacol. Exp. Ther., 96, 99, 1949) and is expressed in mg/kg. The products were orally administered to mice.
Behaviour was studied, 2, 4, 6 and 24 hours after treatment. Observation was continued if symptoms persisted at that time. Deaths were recorded during the 14 days after treatment. The results are given in Table II, in which the numbers of the compounds are the same as the numbers given in column 1 of Table I.

[4] = test system: accumulation of galactitol in fibroblasts obtained from human skin; test: Inhibition of accumulation of galactitol in fibroblasts; assay type: cell-based; details: Fibroblast, 48 h, 37° C., galactose 3 mg/ml
Experimental: 1.2 Inhibiting effect on accumulation of galactitol:
A test for evaluating this activity was made in vitro on fibroblasts obtained from human skin.
An experimental model culture was obtained by incubating the cells in the presence of a medium containing a high concentration of galactose (3 mg/ml) and the product under test, and measuring the accumulation of galactitol in the cells after a 48-hour incubation period at 37° C. The cells were then isolated, washed in physiological salt solution and treated with a water-ethanol solution. The medium was centrifuged and the supernatant liquid was lyophylized.
The galactitol in the resulting sample was determined by HPLC (=high pressure liquid chromatography) after derivatives had been obtained with phenyl isocyanate.
The proportion of proteins in the precipitate obtained during the previously-mentioned centrifuging was measured by the method of M. M. Bradford (Anal. Biochem., 72, 248-254 (1976)) and indicated the number of cells present in the sample.
The inhibiting effect of the tested product was expressed as a percentage inhibition of intracellular accumulation of galactitol compared with the controls.

aldose reductase = biological target: T1, aldose reductase (Rattus norvegicus, UniProt P07943); test: Inhibition of enzymatic activity of aldose reductase in vitro; assay type: biochemical; details: 10^-4 M, rat crystalline lens enzyme, pH 6.2, D,L-glyceraldehyde substrate; read-out: Inhibition of enzymatic activity of AR in vitro
T1 construct: The supernatant liquid formed the enzyme solution used for the test; from tissue; host or cells: rat crystalline lens, water homogenate, supernatant
Text: 1.1 Inhibiting effect on enzymatic activity of aldose reductase:
The method described by S. Hayman and J. H. Kinoshita (J. Biol. Chem., 240, 877 (1965)) was used for in vitro testing of the aforementioned effect of the products according to the invention.
Rat's crystalline lens was homogenized in water and centrifuged to eliminate insoluble substances. The supernatant liquid formed the enzyme solution used for the test.
The effect of products according to the invention in inhibiting enzymatic activity of aldose reductase was determined by spectrophotometrically following for 5 minutes the disappearance of NADPH in an aqueous solution containing 0.067M phosphate buffer (final pH: 6.2), 0.40M lithium sulphate, 5.10^-5 M NADPH, 10^-4 M of the product under test and 100 μl of the enzyme solution, to which 10^-2 M of D,L-glyceraldehyde had been added as substrate. (NADPH=reduced form of nicotinamide adenine dinucleotide phosphate).
The inhibiting effect observed in the presence of 10^-4 M of product under test relative to the reaction in the absence of a compound according to the invention, is expressed as a percentage.

| Structure (SMILES) | Inhibition of accumulation of sorbitol in vivo, in sciatic nerves [1] [%] | Inhibition of accumulation of sorbitol in vivo, crystalline lenses [2] [%] | LD50 at 336 h [3] [mg/kg] | inhibition at 100 µM ([4]; 10^-4 M) [%] | inhibition at 10 µM ([4]; 10^-5 M) [%] | inhibition at 1 µM ([4]; 10^-6 M) [%] | inhibition of accumulation of sorbitol in crystalline lenses and sciatic nerves (in words) [2] | inhibition at 100 µM (aldose reductase) [%] |
| --- | --- | --- | --- | --- | --- | --- | --- | --- |
| O=C(OCN1C(=O)N(COC(=O)c2ccccc2)C2(C1=O)c1ccccc1-c1ccccc12)c1ccccc1 [Compound 3] | 55 | 37 | > 3000 | – | – | – | – | – |
| CC(C)(C)C(=O)OCN1C(=O)N(COC(=O)C(C)(C)C)C2(C1=O)c1ccccc1-c1ccccc12 [Compound 4] | 50 | 51 | – | – | – | – | – | – |
| CCC(=O)OCN1C(=O)N(COC(=O)CC)C2(C1=O)c1ccccc1-c1ccccc12 [Compound 5, bis-(1',3'-propanoyloxymethyl)-spiro-[fluorene-9,4'-imidazolidine]-2',5'-dione] | 81 | 74 | – | 91 | 56 | 24 | particularly active | – |
| CCCCCCCC(=O)OCN1C(=O)N(COC(=O)CCCCCCC)C2(C1=O)c1ccccc1-c1ccccc12 [Compound 6, bis-(1',3'-n.octanoyloxymethyl)-spiro-/fluorene-9,4'-imidazolidine/-2',5'-dione] | 79 | 76 | > 3000 | – | – | – | – | 0 |
| CC(OC(=O)C(C)(C)C)N1C(=O)NC2(C1=O)c1ccccc1-c1ccccc12 (stereo not shown) [Compound 7, 1'-/1-(2,2-dimethylpropanoyloxy)-ethyl/-spiro-/fluorene-9,4'-imidazolidine/-2',5'-dione] | 72 | 45 | – | – | – | – | – | – |
| O=C(CCCC1CCCCC1)OCN1C(=O)N(COC(=O)CCCC2CCCCC2)C2(C1=O)c1ccccc1-c1ccccc12 [Compound 8] | 85 | 69 | > 3000 | – | – | – | particularly active | – |
| CC(C)(C)CC(=O)OCN1C(=O)N(COC(=O)CC(C)(C)C)C2(C1=O)c1ccccc1-c1ccccc12 [Compound 9] | 70 | 49 | > 1000 | – | – | – | – | – |
| CCOC(=O)OCN1C(=O)N(COC(=O)OCC)C2(C1=O)c1ccccc1-c1ccccc12 [Compound 10, bis-(1',3'-ethoxycarbonyloxymethyl)-spiro-/fluorene-9,4'-imidazolidine/-2',5'-dione] | 84 | 80 | > 3000 | – | – | – | particularly active | – |
| O=C(CCCc1ccccc1)OCN1C(=O)N(COC(=O)CCCc2ccccc2)C2(C1=O)c1ccccc1-c1ccccc12 [Compound 11] | 24 | 4 | – | – | – | – | – | 0 |
| O=C(OCN1C(=O)N(COC(=O)C2CCCCC2)C2(C1=O)c1ccccc1-c1ccccc12)C1CCCCC1 [Compound 12] | 48 | 12 | > 1000 | – | – | – | – | – |
| O=C(OCc1ccccc1)OCN1C(=O)N(COC(=O)OCc2ccccc2)C2(C1=O)c1ccccc1-c1ccccc12 [Compound 13] | 50 | 33 | – | – | – | – | – | – |
| O=C(COc1ccccc1)OCN1C(=O)N(COC(=O)COc2ccccc2)C2(C1=O)c1ccccc1-c1ccccc12 [Compound 14] | 61 | 51 | > 1000 | – | – | – | – | – |
| CCCCC(=O)OCN1C(=O)N(COC(=O)CCCC)C2(C1=O)c1ccccc1-c1ccccc12 [Compound 15] | 74 | 54 | – | – | – | – | – | 0 |
| O=C(OCN1C(=O)N(COC(=O)Oc2ccccc2)C2(C1=O)c1ccccc1-c1ccccc12)Oc1ccccc1 [Compound 16] | 65 | 53 | > 3000 | – | – | – | – | – |
| COCN1C(=O)NC2(C1=O)c1ccccc1-c1ccccc12 [Compound 17, 1'-(methoxymethyl)-spiro-/fluorene-9,4'-imidazolidine/-2',5'-dione] | 92 | 86 | – | – | – | – | particularly active | 84 |
| O=C(Nc1ccccc1)OCN1C(=O)N(COC(=O)Nc2ccccc2)C2(C1=O)c1ccccc1-c1ccccc12 [Compound 18, bis-(1',3'-N-phenylcarbamoyloxymethyl)-spiro-/fluorene-9,4'-imidazolidine/-2',5'-dione] | 17 | 8 | > 3000 | – | – | – | – | – |
| O=C(OCN1C(=O)N(COC(=O)C2CCCC2)C2(C1=O)c1ccccc1-c1ccccc12)C1CCCC1 [Compound 19] | 89 | 77 | > 3000 | – | – | – | particularly active | – |
| CCC(C(=O)OCN1C(=O)N(COC(=O)C(CC)c2ccccc2)C2(C1=O)c1ccccc1-c1ccccc12)c1ccccc1 (stereo not shown) [Compound 20] | 77 | 60 | > 3000 | – | – | – | – | – |
| CC(=O)OCN1C(=O)NC2(C1=O)c1ccccc1-c1ccccc12 [Compound 21, 1'-(acetoxymethyl)-spiro-/fluorene-9,4'-imidazolidine/-2',5'-dione] | 94 | 85 | > 1000 | – | – | – | particularly active | 8 |
| CNC(=O)OCN1C(=O)N(COC(=O)NC)C2(C1=O)c1ccccc1-c1ccccc12 [Compound 22] | 17 | 21 | – | – | – | – | – | 0 |

— patent publication US4853401A, “Spiro-hydantoins as aldose reductase inhibitors” (priority 1987, dated 1989)
